“And” between values parts separate entries of the source, which are not always exact repeats. Equal entries are not always repeated. ± gives the expanded uncertainty stated by the source.
What was measured:
[1] = molar heat capacity at constant pressure; settings: 101.33 kPa, Crystal, Small sample (50 mg) DSC
[2] = Crystal

SMILES | molar heat capacity at constant pressure ([1]; 283.15 K) | molar heat capacity at constant pressure ([1]; 288.15 K) | molar heat capacity at constant pressure ([1]; 293.15 K) | molar heat capacity at constant pressure ([1]; 298.15 K) | molar heat capacity at constant pressure ([1]; 303.15 K) | molar heat capacity at constant pressure ([1]; 308.15 K) | molar heat capacity at constant pressure ([1]; 313.15 K) | molar heat capacity at constant pressure ([1]; 318.15 K) | molar heat capacity at constant pressure ([1]; 323.15 K) | molar heat capacity at constant pressure ([1]; 328.15 K) | molar heat capacity at constant pressure ([1]; 333.15 K) | mass density ([2]; 296 K, 101.33 kPa, X-ray diffraction) [kg/m3] | Normal melting temperature ([2]; visual observation) [°C]
CCCCC(C#N)(Cn1cncn1)c1ccc(Cl)cc1 (centres undefined) | 343.21 ± 9.5 J/K/mol and 340.09 ± 9.4 J/K/mol | 349.62 ± 9.7 J/K/mol and 349.73 ± 9.7 J/K/mol | 357.56 ± 9.9 J/K/mol and 356.25 ± 9.9 J/K/mol | 364.3 ± 10 J/K/mol and 362.78 ± 10 J/K/mol | 370.21 ± 10 J/K/mol and 369.3 ± 10 J/K/mol | 375.66 ± 10 J/K/mol and 375.82 ± 10 J/K/mol | 381.03 ± 11 J/K/mol and 382.35 ± 11 J/K/mol | 386.69 ± 11 J/K/mol and 388.87 ± 11 J/K/mol | 393.03 ± 11 J/K/mol and 395.39 ± 11 J/K/mol | 400.42 ± 11 J/K/mol and 401.92 ± 11 J/K/mol | 408.44 ± 11 J/K/mol and 409.23 ± 11 J/K/mol | 1238 ± 6 | 70.30 ± 0.58
c1ccc2ccccc2c1 [naphthalene] | 158.4 ± 3.9 J/K/mol | 161.6 ± 4 J/K/mol | 164.8 ± 4.1 J/K/mol | 168 ± 4.2 J/K/mol | 171.2 ± 4.2 J/K/mol | 174.5 ± 4.3 J/K/mol | 177.8 ± 4.4 J/K/mol | 181.1 ± 4.5 J/K/mol | 184.5 ± 4.6 J/K/mol | 187.9 ± 4.7 J/K/mol | 191.3 ± 4.7 J/K/mol | – | –

Source: the NIST ThermoML archive (doi:10.1016/j.jct.2016.05.014)
